Test results reported in PMC7922564, “Molecular Insights into an Antibiotic Enhancer Action of New Morpholine-Containing 5-Arylideneimidazolones in the Fight against MDR Bacteria” (International Journal of Molecular Sciences, 2021).
Read-outs that look alike come from different tables or passages of the source.

Columns and labels:
[1] = system: S. aureus MM-N072; assay: MIC of compounds, S. aureus MM-N072; type: cell-based; conditions: Staphylococcus aureus; MM-N072 (MSSA)
Description: (§1) Compounds 14–16 were tested further for their adjuvant-like effect with a set of ten additional S. aureus isolates. Firstly, MIC values of the molecules were evaluated in two clinical MSSA isolates (MM-O058, MM-N072), seven MRSA (USA300 LAC, 5328, LG-N017, MM-O021, R45-CC45, R46-CC22, COL) and one VISA strain (Mu50). Detailed results are presented in the Supplementary section (Table S3).
(§2) Determination of MIC values, i.e., intrinsic antibacterial activity, of products and antibiotics (oxacillin, ampicillin, vancomycin, ciprofloxacin, and erythromycin) in the presence and absence of compounds tested was conducted by the use of a standard 2-fold microdilution method in cation-adjusted Mueller Hinton broth following the Clinical and Laboratory Standards Institute (CLSI) guidelines. The MIC values were detected using an Infinite M200 pro Tecan microplate reader (Tecan® France, SA-Lyon, France). MIC determinations were conducted in 96-well microtiter plates and repeated 3–4 times.
(§3) Initially, MICs of a series of imidazolone derivatives were assessed against susceptible (reference) and MDR strains of staphylococci. Next, MIC values of the aforementioned antibiotics were determined in the absence and presence of imidazolone derivatives to assess the chemosensitizing effect of these compounds. […] 5-arylideneimidazolones and 5-arylidenethiazolones, which precipitated after addition to bacterial suspension in MH II medium, were tested at the highest concentrations at which precipitation was not observed. […] Antibacterial activity of compounds and antibiotics ampicillin, vancomycin, ciprofloxacin, and erythromycin was recorded as the lowest concentration of molecules able to inhibit bacterial growth after 18 h incubation at 37 °C. […] The results are presented as activity gain (A) parameter which was calculated as ratio of MIC of a certain antibiotic (MICAnt) to its MICAnt+Comp, observed in combination with a tested compound (7, 12–16, 19, or 20; Equation (1)). […]

[2] = system: S. aureus MM-N072; assay: MIC reduction assay (antibiotic adjuvant), S. aureus MM-N072; type: cell-based, Staphylococcus aureus
From the text: (§4) The adjuvant properties of compounds 14–16 in S. aureus clinical isolates were next tested in combination with oxacillin and the penicillinase-susceptible β-lactam antibiotic, ampicillin. The second β-lactam antibiotic was chosen based on its vulnerability to enzymatic hydrolysis, another important resistance mechanism in S. aureus against penicillin. Therefore, the results of the MIC reduction assay obtained on the activity of arylideneimidazolones combined with oxacillin and ampicillin, respectively, might provide further insights into the possible mechanism of action of the compounds. Complete results are presented in Supplementary (Tables S4 and S5), while condensed in Figure 6, in the case of desired activity noted. […] One possible explanation for the lack of adjuvant activity of compounds in some of the strains selected for this study might be that these strains express PBP2a only when induced by the antibiotic, while others, for which potentiating activity of compounds was observed, produce this protein in high levels straight away.
as §2
(§5) Initially, MICs of a series of imidazolone derivatives were assessed against susceptible (reference) and MDR strains of staphylococci. Next, MIC values of the aforementioned antibiotics were determined in the absence and presence of imidazolone derivatives to assess the chemosensitizing effect of these compounds. […] 5-arylideneimidazolones and 5-arylidenethiazolones, which precipitated after addition to bacterial suspension in MH II medium, were tested at the highest concentrations at which precipitation was not observed. […] Antibacterial activity of compounds and antibiotics ampicillin, vancomycin, ciprofloxacin, and erythromycin was recorded as the lowest concentration of molecules able to inhibit bacterial growth after 18 h incubation at 37 °C. The incubation of bacterial strains exposed to oxacillin paired with compounds tested was conducted at 35 °C and extended to 24 h due to frequent occurrence of heterogeneity among MRSA strains. The results are presented as activity gain (A) parameter which was calculated as ratio of MIC of a certain antibiotic (MICAnt) to its MICAnt+Comp, observed in combination with a tested compound (7, 12–16, 19, or 20; Equation (1)). (1) A=(MICAnt/MICAnt+Comp)

[3] = system: MRSA 19449; assay: MIC determination (microdilution), MRSA 19449; type: cell-based, Staphylococcus aureus; conditions: Staphylococcus aureus, MRSA, no precipitation
Description: as §2, §5

[4] = system: S. aureus MM-O021; assay: MIC of compounds, S. aureus MM-O021; type: cell-based; conditions: Staphylococcus aureus; MM-O021 (MRSA)
Description: as §1, §2, §3

[5] = system: AcrAB-TolC efflux pump in K. aerogenes strain Ea-289; assay: Real-time efflux (RTE) assay, 1,2'-dNA extrusion; type: cell-based, Klebsiella aerogenes; conditions: compound 100 µM; IE=100% total inhibition of efflux
Description: Compounds 7, 12–16, 19, and 20 were also assessed for their EPI property in K. aerogenes strain Ea-289 with the use of a real-time efflux (RTE) assay. Results for compounds 16 and 20 were previously described. The experiment is based on the measurement of the extrusion of a fluorescent dye from bacterial cells overproducing efflux pump transporters in the presence and absence of compounds tested. The dye used in this assay, 1,2’ –dinaphthylamine (1,2’-dNA), is a substrate for the AcrAB-TolC efflux pump, and is strongly fluorescent upon incorporation into a phospholipid bilayer, although it is almost non-fluorescent in an aqueous solution [37, 38].
A likewise strong blocking efficacy (IE = 83 %) was also noticed for compound 12, while the lowest inhibitory effect was found for compound 13 (IE = 23 %).
The inhibitory activity of 5-arylideneimidazolone derivatives towards AcrAB-TolC mediated efflux of 1,2’-dNA was detected in K. aerogenes strain Ea-289 by using a real-time fluorometric method. In a first step, bacterial cells were loaded with the environment-sensitive fluorescent membrane probe, 1,2’-dNA, in the presence of the EPI carbonyl cyanide m-chlorophenylhydrazone (CCCP) which inactivated the pump by dissipating membrane potential. Next, compounds tested were added at the concentration of 100 µM and the efflux was energizing by automated injection of glucose at a dose of 50 µM. The fluorescence intensity was measured in a microplate reader (Tecan) with an excitation wavelength of λex = 370 nm and an emission wavelength of λem = 420 nm.

[6] = system: S. aureus USA300 LAC; assay: MIC of compounds, S. aureus USA300 LAC; type: cell-based; conditions: Staphylococcus aureus
Description: as §1, §2, §3

[7] = system: S. aureus LG-N017; assay: MIC reduction assay (antibiotic adjuvant), S. aureus LG-N017; type: cell-based, Staphylococcus aureus
From the text: as §4, §2, §5

[8] = system: K. aerogenes CM-64; assay: MIC reduction assay (antibiotic adjuvant), K. aerogenes CM-64; type: cell-based, Klebsiella aerogenes; conditions: doxycycline, chloramphenicol, norfloxacin, erythromycin;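 also: compound at no more than one quarter of its own MIC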
From the text: A subset of compounds, namely 7, 12–16, 19, 20, was also examined for the potential to increase the effectiveness of the antibiotics chloramphenicol, erythromycin, doxycycline, and the fluoroquinolone antibiotic norfloxacin, which all are substrates for AcrAB-TolC in K. aerogenes. In addition to strain Ea-289, the adjuvant-like effect of the compounds was investigated in strain CM-64, which also overexpresses the AcrAB-TolC efflux pump, although it has no changes in porin content, and in the Ea-289 derivatives, i.e., Ea-294 and Ea-308, which are devoid of AcrAB (Table S17, Supplementary).
as §5
MIC values of 5-arylideneimidazolone derivatives were determined following CLSI recommendations as in the methods described for S. aureus (Section 3.3.1).

[9] = system: S. aureus 5328; assay: MIC of compounds, S. aureus 5328; type: cell-based; conditions: Staphylococcus aureus; 5328 (MRSA)
Description: as §1, §2, §3

[10] = system: S. aureus COL; assay: MIC reduction assay (antibiotic adjuvant), S. aureus COL; type: cell-based, Staphylococcus aureus; conditions: ampicillin
From the text: as §4, with “away. […]” for “away.”
Initially, MICs of a series of imidazolone derivatives were assessed against susceptible (reference) and MDR strains of staphylococci. Next, MIC values of the aforementioned antibiotics were determined in the absence and presence of imidazolone derivatives to assess the chemosensitizing effect of these compounds. […] Antibacterial activity of compounds and antibiotics ampicillin, vancomycin, ciprofloxacin, and erythromycin was recorded as the lowest concentration of molecules able to inhibit bacterial growth after 18 h incubation at 37 °C. […] The results are presented as activity gain (A) parameter which was calculated as ratio of MIC of a certain antibiotic (MICAnt) to its MICAnt+Comp, observed in combination with a tested compound (7, 12–16, 19, or 20; Equation (1)). […]

[11] = system: S. aureus Mu50; assay: MIC reduction assay (antibiotic adjuvant), S. aureus Mu50; type: cell-based, Staphylococcus aureus; set-up: key: A = MIC of antibiotic alone / MIC with compound;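 also: compound at no more than one quarter of its own MIC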
From the text: as §4, §2, §5

[12] = system: S. aureus R46-CC22; assay: MIC reduction assay (antibiotic adjuvant), S. aureus R46-CC22; type: cell-based, Staphylococcus aureus
From the text: as §4, §2, §5

[13] = USA300 LAC (MRSA), read-out: MIC value of compounds

Structure (SMILES)	MIC [1]	A (activity gain) ([2]; ampicillin)	A (activity gain) ([2]; erythromycin)	MIC [3]	MIC [4]	Inhibition efficiency (IE) towards extrusion of 1,2'-dNA [5]	MIC [6, 13]	A (activity gain) ([7]; ampicillin)	A (activity gain) ([7]; erythromycin)	A (activity gain) [8]	MIC [9]	A (activity gain) [10]	A (activity gain) ([11]; ampicillin)	A (activity gain) ([11]; ciprofloxacin)	A (activity gain) ([11]; erythromycin)	A (activity gain) ([11]; vancomycin)	A (activity gain) ([12]; ampicillin)	A (activity gain) ([12]; ciprofloxacin)	MIC ([6]; MRSA / USA300, read-out: MIC value of compounds)
NC1=N/C(=C\c2ccc(-c3ccccc3)cc2)C(=O)N1CCN1CCOCC1 [Compound 14]	≥ 500 µM	1	1	31.2 to 250 µM	≥ 500 µM	57%	≥ 500 µM	2	1	1	≥ 500 µM	1	1	1	1	1	2	1	–
NC1=N/C(=C\c2ccc(-c3ccccc3)cc2)C(=O)N1CCCN1CCOCC1 [Compound 15]	250 µM	1	1	31.2 to 250 µM	250 to 500 µM	72%	–	1	1	1	250 µM	1	2	1	1	1	2	1	125 µM
NC1=N/C(=C\c2cccc(Oc3ccccc3)c2)C(=O)N1CCCN1CCOCC1 [Compound 16]	250 µM	1	1	–	250 µM	–	250 µM	1	1	–	250 µM	1	2	1	1	1	1	1	–
NC1=N/C(=C\c2ccc3c(c2)Cc2ccccc2-3)C(=O)N1CCCN1CCOCC1 [Compound 19]	–	–	–	31.2 to 250 µM	–	90%	–	–	–	1	–	–	–	–	–	–	–	–	–
